Assay in all cases: KINOMEscan Assay (DiscoverX)
Common to all, as to type: binding

The target in one test is T1, CSNK2A1 (Homo sapiens, UniProt P68400).
T1 construct: purchased DiscoverX
The note with it: read-out: % DMSO Ctrl.

A further test deals with T2, DYRK2 (Homo sapiens, UniProt Q92630).
T2 construct: purchased DiscoverX
T2 sequence (Q92630 1-601): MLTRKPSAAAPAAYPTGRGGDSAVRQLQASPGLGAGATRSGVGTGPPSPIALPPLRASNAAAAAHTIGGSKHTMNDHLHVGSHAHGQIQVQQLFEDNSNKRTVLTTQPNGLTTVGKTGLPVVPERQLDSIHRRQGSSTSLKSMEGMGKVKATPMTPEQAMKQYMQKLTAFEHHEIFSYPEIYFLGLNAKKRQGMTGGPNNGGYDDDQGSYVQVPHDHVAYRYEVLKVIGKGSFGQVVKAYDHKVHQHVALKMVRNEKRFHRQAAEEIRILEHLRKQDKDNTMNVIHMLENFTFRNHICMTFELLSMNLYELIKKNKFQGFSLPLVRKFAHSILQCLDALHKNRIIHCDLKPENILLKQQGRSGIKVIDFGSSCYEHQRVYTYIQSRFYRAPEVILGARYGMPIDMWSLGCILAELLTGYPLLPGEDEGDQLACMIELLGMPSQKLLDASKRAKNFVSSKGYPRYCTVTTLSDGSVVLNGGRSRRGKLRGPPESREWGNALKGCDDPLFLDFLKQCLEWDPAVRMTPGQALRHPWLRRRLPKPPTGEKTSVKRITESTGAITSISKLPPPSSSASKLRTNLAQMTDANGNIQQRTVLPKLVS
As to conditions: read-out: % DMSO Ctrl.

In another test the target is T3, IRAK3 (Homo sapiens, UniProt Q9Y616).
T3 construct: purchased DiscoverX
T3 sequence (Q9Y616 1-596): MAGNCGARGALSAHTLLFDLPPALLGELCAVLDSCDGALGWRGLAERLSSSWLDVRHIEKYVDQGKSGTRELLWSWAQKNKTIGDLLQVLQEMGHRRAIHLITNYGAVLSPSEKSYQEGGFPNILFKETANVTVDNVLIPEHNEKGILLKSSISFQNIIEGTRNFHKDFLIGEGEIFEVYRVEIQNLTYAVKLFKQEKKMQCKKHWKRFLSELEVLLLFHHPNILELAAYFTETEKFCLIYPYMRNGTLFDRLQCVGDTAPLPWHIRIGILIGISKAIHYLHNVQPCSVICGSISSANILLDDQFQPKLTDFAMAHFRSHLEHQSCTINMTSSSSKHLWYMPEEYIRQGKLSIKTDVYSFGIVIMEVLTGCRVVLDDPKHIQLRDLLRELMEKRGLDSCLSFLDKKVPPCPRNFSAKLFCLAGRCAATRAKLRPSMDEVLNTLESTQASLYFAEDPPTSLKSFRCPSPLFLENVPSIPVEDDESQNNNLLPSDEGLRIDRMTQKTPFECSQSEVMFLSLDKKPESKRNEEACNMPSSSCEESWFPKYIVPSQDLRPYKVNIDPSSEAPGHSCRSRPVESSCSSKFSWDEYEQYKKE
As to conditions: read-out: % DMSO Ctrl.

The target of a further test is T4, PIM2 (Homo sapiens, UniProt Q9P1W9).
T4 construct: purchased DiscoverX
As to conditions: read-out: % DMSO Ctrl.

The next test has as its target T5, ROCK1 (Homo sapiens, UniProt Q13464).
T5 construct: purchased DiscoverX
As to conditions: read-out: % DMSO Ctrl.

A further test deals with T6, EGFR(L858R,T790M) (Homo sapiens, UniProt P00533, L858R/T790M).
T6 construct: purchased DiscoverX
As to conditions: read-out: % DMSO Ctrl.

The test system of a further test is FLT3(ITD). The note with it: FLT3(ITD) mutant; 10 μM.
The next test deals with T7, MEK2 (Homo sapiens, UniProt P36507).
T7 construct: purchased DiscoverX
As to conditions: read-out: % DMSO Ctrl.

In test [1] the target is T8, TYK2(JH1domain-catalytic) (Homo sapiens, UniProt P29597).
T8 construct: JH1domain; purchased DiscoverX
T8 sequence (P29597 897-1176 limits assumed): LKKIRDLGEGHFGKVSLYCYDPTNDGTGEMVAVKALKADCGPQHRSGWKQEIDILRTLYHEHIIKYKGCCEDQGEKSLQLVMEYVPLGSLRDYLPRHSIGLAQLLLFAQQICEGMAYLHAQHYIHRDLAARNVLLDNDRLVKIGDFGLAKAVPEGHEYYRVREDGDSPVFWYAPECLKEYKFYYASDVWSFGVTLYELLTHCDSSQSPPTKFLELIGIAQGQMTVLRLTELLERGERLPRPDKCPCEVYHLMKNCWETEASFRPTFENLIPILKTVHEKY
As to conditions: read-out: % DMSO Ctrl.

Like-named read-outs stand apart in the source and are kept apart here.

T7 sequence (P36507 whole entry): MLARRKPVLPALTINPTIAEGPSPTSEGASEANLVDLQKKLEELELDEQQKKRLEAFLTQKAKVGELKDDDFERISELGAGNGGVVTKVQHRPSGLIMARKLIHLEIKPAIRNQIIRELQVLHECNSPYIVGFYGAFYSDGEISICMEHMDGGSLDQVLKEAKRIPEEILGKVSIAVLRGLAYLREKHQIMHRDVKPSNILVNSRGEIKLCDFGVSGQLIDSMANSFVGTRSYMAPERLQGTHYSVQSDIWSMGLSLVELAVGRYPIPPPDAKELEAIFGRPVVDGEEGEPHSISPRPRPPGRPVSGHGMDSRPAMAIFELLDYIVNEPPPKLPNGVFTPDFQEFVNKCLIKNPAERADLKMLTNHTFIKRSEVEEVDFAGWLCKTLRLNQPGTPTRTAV
T5 sequence (Q13464 whole entry): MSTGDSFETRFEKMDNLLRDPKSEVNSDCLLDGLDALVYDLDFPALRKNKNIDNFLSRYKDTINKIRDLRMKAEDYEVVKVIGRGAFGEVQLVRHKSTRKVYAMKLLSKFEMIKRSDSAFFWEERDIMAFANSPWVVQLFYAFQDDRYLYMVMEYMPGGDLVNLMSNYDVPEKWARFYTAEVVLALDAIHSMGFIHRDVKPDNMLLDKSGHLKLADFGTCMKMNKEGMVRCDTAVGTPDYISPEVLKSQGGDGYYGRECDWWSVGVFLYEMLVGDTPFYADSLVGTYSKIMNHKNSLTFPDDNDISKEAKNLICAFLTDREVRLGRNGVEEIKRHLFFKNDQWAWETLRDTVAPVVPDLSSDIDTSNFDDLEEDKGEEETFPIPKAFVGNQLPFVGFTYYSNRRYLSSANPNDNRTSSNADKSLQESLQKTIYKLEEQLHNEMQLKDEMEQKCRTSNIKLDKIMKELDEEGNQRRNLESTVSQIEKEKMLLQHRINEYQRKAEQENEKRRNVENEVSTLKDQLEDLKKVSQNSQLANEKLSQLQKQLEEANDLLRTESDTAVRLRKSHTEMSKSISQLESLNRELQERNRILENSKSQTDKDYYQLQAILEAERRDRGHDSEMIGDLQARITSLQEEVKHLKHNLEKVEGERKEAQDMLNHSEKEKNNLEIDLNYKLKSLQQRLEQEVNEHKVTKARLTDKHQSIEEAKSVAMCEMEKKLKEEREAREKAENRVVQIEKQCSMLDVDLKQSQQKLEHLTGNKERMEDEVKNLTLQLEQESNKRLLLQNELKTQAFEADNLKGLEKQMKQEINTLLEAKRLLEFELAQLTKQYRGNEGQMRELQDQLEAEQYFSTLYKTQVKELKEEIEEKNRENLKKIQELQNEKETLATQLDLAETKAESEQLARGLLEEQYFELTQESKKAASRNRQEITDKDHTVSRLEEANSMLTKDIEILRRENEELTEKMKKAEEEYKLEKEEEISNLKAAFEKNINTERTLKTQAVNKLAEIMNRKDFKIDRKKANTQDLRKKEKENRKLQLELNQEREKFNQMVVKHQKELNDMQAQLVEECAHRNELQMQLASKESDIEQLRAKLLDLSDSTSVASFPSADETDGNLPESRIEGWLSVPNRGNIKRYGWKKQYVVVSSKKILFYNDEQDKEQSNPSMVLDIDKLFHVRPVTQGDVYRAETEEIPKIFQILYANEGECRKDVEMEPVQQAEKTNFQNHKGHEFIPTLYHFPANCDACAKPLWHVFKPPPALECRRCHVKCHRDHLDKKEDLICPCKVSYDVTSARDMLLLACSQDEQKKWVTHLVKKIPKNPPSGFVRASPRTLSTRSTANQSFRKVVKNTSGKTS
T4 sequence (Q9P1W9 whole entry): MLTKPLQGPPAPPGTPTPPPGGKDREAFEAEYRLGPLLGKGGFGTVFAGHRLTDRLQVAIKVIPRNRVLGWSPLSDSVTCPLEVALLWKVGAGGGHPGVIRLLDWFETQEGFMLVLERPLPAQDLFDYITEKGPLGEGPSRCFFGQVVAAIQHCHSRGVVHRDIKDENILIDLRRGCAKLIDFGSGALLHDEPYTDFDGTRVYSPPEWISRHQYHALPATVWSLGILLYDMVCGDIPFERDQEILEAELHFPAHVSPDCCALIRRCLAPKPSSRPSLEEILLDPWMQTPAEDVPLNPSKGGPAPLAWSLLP
T1 sequence (P68400 whole entry): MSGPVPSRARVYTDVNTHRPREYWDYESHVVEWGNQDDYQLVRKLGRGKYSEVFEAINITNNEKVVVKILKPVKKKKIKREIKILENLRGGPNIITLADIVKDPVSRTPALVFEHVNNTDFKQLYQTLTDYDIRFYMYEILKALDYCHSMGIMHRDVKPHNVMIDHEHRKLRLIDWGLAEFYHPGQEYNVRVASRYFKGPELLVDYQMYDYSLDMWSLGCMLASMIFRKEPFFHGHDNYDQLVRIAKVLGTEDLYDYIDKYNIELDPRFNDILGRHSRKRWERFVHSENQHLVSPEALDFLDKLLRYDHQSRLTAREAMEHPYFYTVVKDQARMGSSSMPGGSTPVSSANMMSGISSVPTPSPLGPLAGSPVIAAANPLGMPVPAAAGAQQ
T6 sequence (P00533 25-1210 T790M/L858R): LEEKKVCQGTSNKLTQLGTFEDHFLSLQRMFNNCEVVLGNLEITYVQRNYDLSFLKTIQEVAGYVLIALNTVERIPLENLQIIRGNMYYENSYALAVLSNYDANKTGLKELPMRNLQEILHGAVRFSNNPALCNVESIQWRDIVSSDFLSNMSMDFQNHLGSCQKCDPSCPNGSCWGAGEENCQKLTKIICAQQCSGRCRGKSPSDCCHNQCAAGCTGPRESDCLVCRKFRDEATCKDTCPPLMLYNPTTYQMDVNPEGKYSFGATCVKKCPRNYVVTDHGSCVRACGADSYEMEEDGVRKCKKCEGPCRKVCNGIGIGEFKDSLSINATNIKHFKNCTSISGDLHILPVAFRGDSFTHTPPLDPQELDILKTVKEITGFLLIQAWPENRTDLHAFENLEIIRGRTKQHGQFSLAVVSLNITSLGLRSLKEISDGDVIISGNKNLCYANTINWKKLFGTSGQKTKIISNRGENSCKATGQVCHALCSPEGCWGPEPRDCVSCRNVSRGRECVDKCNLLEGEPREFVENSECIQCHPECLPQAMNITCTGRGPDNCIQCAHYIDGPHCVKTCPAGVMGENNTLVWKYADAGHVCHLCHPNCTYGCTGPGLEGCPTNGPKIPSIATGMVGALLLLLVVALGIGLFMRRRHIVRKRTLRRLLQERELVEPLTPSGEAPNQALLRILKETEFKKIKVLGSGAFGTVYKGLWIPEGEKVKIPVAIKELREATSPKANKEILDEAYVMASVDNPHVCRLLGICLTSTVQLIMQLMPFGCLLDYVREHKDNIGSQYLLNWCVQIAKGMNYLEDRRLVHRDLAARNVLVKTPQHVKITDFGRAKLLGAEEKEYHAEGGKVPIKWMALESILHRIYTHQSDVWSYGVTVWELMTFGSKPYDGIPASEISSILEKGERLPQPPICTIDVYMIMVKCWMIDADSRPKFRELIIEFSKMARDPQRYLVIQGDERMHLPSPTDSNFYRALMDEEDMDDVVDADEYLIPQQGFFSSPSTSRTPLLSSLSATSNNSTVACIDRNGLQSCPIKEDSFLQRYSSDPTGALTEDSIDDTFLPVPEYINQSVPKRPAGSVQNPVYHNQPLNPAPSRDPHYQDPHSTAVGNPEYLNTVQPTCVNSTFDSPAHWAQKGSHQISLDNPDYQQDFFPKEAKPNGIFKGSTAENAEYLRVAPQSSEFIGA

With `COc1ccc2c(c1)[nH]c1c(C)nccc12` [Harmine, reference compound], the remaining binding at 10 µM on CSNK2A1 came to 11%; at DYRK2, 3.2%; on IRAK3, 35%; on PIM2, 39%; on ROCK1 it was 26%.

In the case of `COc1ccc2c(c1)[nH]c1c(C)nc(CO)cc12` [Compound 2-8, (1-Methyl-7-methoxy-9H-pyrido[3,4-b]indol-3-yl)methanol], the remaining binding at 10 µM on EGFR(L858R,T790M) (EGFR(L858R,T790M) mutant, 10 μM) is 79%; at IRAK3 (IRAK3, 10 μM), 70%; at MEK2 (MEK2, 10 μM) it was 100%; at ROCK1 (ROCK1, 10 μM), 33%; in test [1] (TYK2(JH1domain-catalytic), 10 μM), 64%. In addition, the “% DMSO Ctrl” value with FLT3(ITD) stood at 87 % DMSO Ctrl.

For `COc1ccc2c3ccnc(C)c3n(CCCc3noc(N)n3)c2c1` [Compound 20-13, 3-(3-(7-Methoxy-1-methyl-β-carbolin-9-yl)propyl)-5-amino-1,2,4-oxadiazole], the remaining binding at 10 µM on CSNK2A1 worked out at 49%; at DYRK2, 9.1%; at EGFR(L858R,T790M), 9.2%; on IRAK3 it was 62%; at MEK2 it was 0%; on PIM2 it was 38%. Also, the remaining binding at 10 µM at ROCK1 stood at 24%; in test [1], 17%. Also, the “% DMSO Ctrl” value in the test on FLT3(ITD) was determined as 72 % DMSO Ctrl.

Turning to `C#CCn1c2cc(OC)ccc2c2ccnc(C)c21` [Compound 20-23a, 3-(7-Methoxy-1-methyl-β-carbolin-9-yl)-propan-1-yne], the remaining binding at 10 µM on CSNK2A1 (CSNK2A1, 10 μM) amounted to 46%; at DYRK2 it was 5.2%; on EGFR(L858R,T790M), 100%; at IRAK3 (IRAK3, 10 μM), 34%; at MEK2, 96%; on PIM2 (PIM2, 10 μM), 19%. Moreover, the remaining binding at 10 µM on ROCK1 (ROCK1, 10 μM) was 9.2%; in test [1] it was 91%. Moreover, in the test with FLT3(ITD), the “% DMSO Ctrl” value was determined as 61 % DMSO Ctrl.

The values are drawn from patent US12421232B2, “Kinase inhibitor compounds and compositions and methods of use” (ICAHN SCHOOL OF MEDICINE AT MOUNT SINAI, priority 2018, dated 2025).
